In patent US12478632B2, “Method for ameliorating progression of renal fibrosis and treating renal fibrosis by 5-(2′,4′-difluorophenyl)-salicylanilide derivatives” (National Defense Medical University, priority 2021, dated 2025):

Experiments:
[1] = system: passively induced IgAN (P-IgAN) mice; assay: passively induced IgAN (P-IgAN) mouse model; type: in vivo, C57BL/6 mice
Description: (§1) Two complementary mouse models of IgAN—a passive IgAN (P-IgAN) and a spontaneous IgAN in gddY mice (S-IgAN) were used to examine therapeutic effects of LCC18 on renal conditions of IgAN. […] Eight-week-old female C57BL/6 mice were injected with IgA anti-PC intraperitoneally and PnC intravenously for 14 or 28 consecutive days. Treatment with LCC18 (daily dose of 10 mg/kg body weight) dissolved in polyethylene glycol 400 (PEG 400) (Sigma-Aldrich, St. Louis, MO, USA) via an intraperitoneal (IP) route (P-IgAN+LCC18), and another group of IgAN mice was administered vehicle only (PEG 400) as the disease control group (P-IgAN+Vehicle). Mice were killed at days 14 and 28. Age-matched C57BL/6 mice injected with saline (P-WT+Saline) were used as normal controls; (2) a spontaneous IgAN in gddY (S-IgAN) mice, featuring severe glomerular and tubulointerstitial lesions, characterized by mesangial proliferation, and mesangial matrix expansion. LCC18 (S-IgAN+LCC18) or vehicle (S-IgAN+Vehicle) was administered to mice daily beginning at 8 weeks of age and continuing throughout the present invention. The gddY mice were sacrificed at 32 weeks. Age-matched BALB/c mice served as normal controls (S-WT). All animal experiments were conducted with approval of the Institutional Animal Care and Use Committee of the National Defense Medical Center, Taipei, Taiwan, and were conducted in accordance with NIH Guidelines for the Care and Use of Laboratory Animals.
(§2) For the P-IgAN model, the mice received daily at day 7 after disease induction, either LCC18 (10 mg/kg body weight) (P-IgAN+LCC18) or vehicle (P-IgAN+Vehicle) via IP throughout the study. For the S-IgAN model, LCC18 (S-IgAN+LCC18) or vehicle (S-IgAN+Vehicle) was administered to the mice daily throughout the study via IP, beginning at 8 weeks of age. […] This beneficial effect began on day 21 after disease induction and increased until day 28 when mice were sacrificed (FIG. 1C).

[2] = system: spontaneous IgAN gddY (S-IgAN) mice; assay: spontaneous IgAN in gddY mice (S-IgAN) model; type: in vivo
Description: as §1, §2

[3] = system: bone marrow-derived DCs (BMDCs); assay: DC activation (CD80 in CD11c+ cells) by flow cytometry in IgA ICs-stimulated BMDCs; type: cell-based; settings: LCC18-treated IgA ICs-stimulated BMDCs; FIG. 3A
Description: (§3) FIG. 3A-3H depict that LCC18 inhibits activation of DCs and systemic immune responses in IgAN model. The fluorescence intensity of CD80^+ in gated CD11c^+ cells (within gated CD11c^+ cells, grey-filled area created by staining with an isotype-matched control antibody) determined by flow cytometry (FIG. 3A). T-cell proliferation measured by [^3H]thymidine (FIG. 3B). BMDCs were incubated for 24 h with IgA ICs and co-cultured with OT-II CD′ T cells pulsed with OVA peptide. P-IgAN mouse model (FIG. 3C, FIG. 3D, FIG. 3E). S-IgAN mouse model (FIG. 3F, FIG. 3G, FIG. 3H). CD3 T-cell proliferation in splenocytes by [^3H]thymidine uptake (FIG. 3C and FIG. 3F). Numbers of CD4^+CD44^hiCD62L^lo (FIG. 3D and FIG. 3G) and CD8^+CD44^hiCD62L^lo-hi (FIG. 3E and FIG. 3H) memory T cells among splenic cells assessed by flow cytometry. WT, wild type. #Not detectable. BMDCs, bone marrow-derived dendritic cells. Bars show the mean±SD of 7 mice per group. *p<0.05, **p<0.01, ***p<0.005, ****p<0.001. ns, no significant difference. Data of FIG. 3B-FIG. 3H were analyzed using ANOVA (with Dunnett's multiple comparisons test).

CD4+ T cells = assay: OVA-specific T cell proliferation assay (BMDCs co-cultured with OT-II T cells, [3H]thymidine); type: cell-based; settings: OT-II T cells pulsed with OVA peptide; FIG. 3B
Description: as §3

ASLN mice = assay: accelerated, severe lupus nephritis (ASLN) model; type: in vivo, NZB/WF1 mice
Description: To establish ASLN model mice, eight-week-old female NZB/WF1 mice (prior to autoantibody production) were given LPS (Sigma, MO, USA) (0.8 mg/kg body weight) twice a week by intraperitoneal injection. Seven days after the first injection of LPS, seven mice each received either LCC18 (10 mg/kg body weight) or vehicle (polyethylene glycol 400) (Sigma) daily via intraperitoneal injections. Another group of age-matched female NZB/WF1 mice were injected with saline and served as normal controls. All mice were sacrificed 5 weeks after induction of the disease. All animal experiments were performed in compliance with the NIH Guidelines for the Care and Use of Laboratory Animals with approval of the Institutional Animal Care and Use Committee of The National Defense Medical Center, Taipei, Taiwan.
Next, an ASLN model in NZB/W F1 mice, which mimics acute onset of severe LN in human, was validated potential therapeutic effects of LCC18 in the present invention. LN was induced in these mice by intermittent LPS injections to simulate SLE patients following bacterial or viral infections believed to act as environmental triggers. LCC18 was administered daily after the onset of the renal condition in ASLN mice (ASLN+LCC18 mice), while ASLN mice that received vehicle only (ASLN+Vehicle mice) were used as disease control mice.
Urine samples were collected for albuminuria assessment using the ratio of urine albumin/urine creatinine (Cr). Serum blood urea nitrogen (BUN) and Cr levels were determined.
On the other hand, renal tissues were fixed in formalin buffer and paraffin-embedded and stained with hematoxylin and eosin (H&E). Scoring of renal pathology was evaluated.
Levels of anti-dsDNA antibody (Alpha Diagnostic International, TX, USA) were measured using commercial ELISA kits.
Reactive oxygen species (ROS) levels in renal tissues were measured by a lucigenin-enhanced chemiluminescence assay.

UUO mice = assay: unilateral ureteral obstruction (UUO) model mimicking renal tubulointerstitial lesions; type: in vivo; settings: days 7 and 14
Text: To establish Unilateral ureteral obstruction (UUO) model for mimicking renal tubulointerstitial lesions (TILs), the mice (8-12 weeks of age) were anesthetized followed by a lateral incision on the back of the mouse. After the left ureter was exposed, it was tied with a silk suture at two points and permanently ligated. Sham-operated mice, which underwent an identical procedure but without ureteric ligation, were used as sham control. After 7 or 14 days, the mice were euthanized, and then, renal tissues, pelvis urine, and renal draining lymph nodes were collected.
LCC18 (10 mg/kg body weight) was administered intraperitoneally 1 day before (preventive group) or 3 days after (therapeutic group) the induction of UUO, or 1 day after the ligation of renal vessels in this model. Diseased mice that received only polyethylene glycol 400 (PEG 400) (Sigma-Aldrich, St. Louis, MO, USA) daily via intraperitoneal injections were used as the vehicle control group. All animal experiments were performed with the approval of the Institutional Animal Care and Use Committee of the National Defense Medical Center, Taiwan, in compliance with the NIH Guide for the Care and Use of Laboratory Animals.
Renal tissues were fixed in 10% buffered formalin, embedded in paraffin, and 3-μm thick sections were cut for haematoxylin and eosin (H&E) staining. Fifty glomeruli were examined in at least two renal tissue sections per slide by light microscopy at ×400 magnification. The percentage of glomeruli showing proliferation, or glomerular sclerosis was determined.
The quantitative analysis of the data obtained from hematoxylin and eosin (H&E) and Masson's trichrome staining of renal histopathological evaluation was used by quantitative imaging software (Pax-it; Paxcam, Villa Park, IL).
Further, in another embodiment, formalin-fixed and paraffin-embedded renal sections were incubated with primary antibodies followed by biotinylated secondary antibodies and avidin-biotin-peroxidase complex (Dako) for IHC staining.

CKDs' subject = assay: summary of effects in kidney and serum of the CKDs' subject; type: in vivo
Text: In summary, the LCC18 attenuates glomerular cell proliferation about 15˜35%, attenuates sclerosis and fibrosis, attenuates crescent formation about 40˜90%, attenuates fibrinoid necrosis about 40˜90% in a kidney of the CKDs' subject.
Further, the LCC18 can regulate renal function and albuminuria, downregulate serum levels of blood urea nitrogen (serum levels of BUN) about 50˜60%, serum levels of creatinine (serum levels of Cr) about 30˜40% and serum levels of IgG anti-dsDNA about 60˜70% of the CKDs' subject.

[4] = in a kidney of the CKDs' subject

## O=c1oc2ccc(-c3ccc(F)cc3F)cc2c(=O)n1-c1cccc(C(F)(F)F)c1 [LCC18, 6-(2,4-difluorophenyl)-3-(3-(trifluoromethyl)phenyl)-2H-benzo[e][1,3]oxazine-2,4(3H)-dione]
[1]; P-IgAN+LCC18 vs P-IgAN+Vehicle, 10 mg/kg daily IP from day 7, FIG. 1A
  serum levels of BUN: Significantly lower
[1]; P-IgAN+LCC18 vs P-IgAN+Vehicle, 10 mg/kg daily IP from day 7, FIG. 1B
  serum levels of Cr: Significantly lower
[1]; flow cytometry, FIG. 3D
  increase in number of CD4+CD44hiCD62Llo memory T cells in the spleen: inhibited
[1]; flow cytometry, FIG. 3E
  increase in number of CD8+CD44hiCD62Llo-hi memory T cells in the spleen: inhibited
[1]; light microscopy, vs P-IgAN+Vehicle, FIG. 1G-1I
  severity of renal lesions (glomerular cell proliferation, sclerosis in glomeruli), H&E: markedly reduced
[1]; vs P-IgAN+Vehicle, FIG. 2A
  ROS levels in renal tissues: Significantly reduced
[1]; vs P-IgAN+Vehicle, FIG. 3C
  T cell proliferation in splenocytes, [3H] thymidine uptake: significantly decreased
[1]; vs P-IgAN+Vehicle, effect began on day 21 and increased until day 28, FIG. 1C
  urine levels of albumin (urine albumin/Cr ratio): significantly decreased
[2]; S-IgAN+LCC18 vs S-IgAN+Vehicle, daily IP from 8 weeks of age, FIG. 1D
  serum levels of BUN: benefited from treatment
[2]; S-IgAN+LCC18 vs S-IgAN+Vehicle, daily IP from 8 weeks of age, FIG. 1E
  serum levels of Cr: benefited from treatment
[2]; flow cytometry, FIG. 3G
  increase in splenic number of CD4+CD44hiCD62Llo memory T cells: inhibited
[2]; flow cytometry, FIG. 3H
  increase in splenic number of CD8+CD44hiCD62Llo-hi memory T cells: inhibited
[2]; vs S-IgAN+Vehicle, FIG. 2B
  ROS levels in renal tissues: Significantly reduced
[2]; vs S-IgAN+Vehicle, FIG. 3F
  T cell proliferation in splenocytes, [3H] thymidine uptake: significantly decreased
[2]; vs S-IgAN+Vehicle, beginning on week 24, continuing to week 32, FIG. 1F
  urine levels of albumin (urine albumin/Cr ratio): therapeutic effect was also observed
[3]
  fluorescence intensity levels of CD11c+CD80+ cells (activation marker for DCs): Significantly decreased
CD4+ T cells
  CD4+ T cell proliferation induced by IgA ICs-stimulated BMDCs: inhibited
ASLN mice; ASLN+LCC18 vs ASLN+Vehicle, 10 mg/kg daily IP, FIG. 4A
  elevated serum levels of BUN: significantly inhibited
ASLN mice; ASLN+LCC18 vs ASLN+Vehicle, 10 mg/kg daily IP, FIG. 4B
  elevated serum levels of Cr: significantly inhibited
ASLN mice; ELISA, vs ASLN+Vehicle, FIG. 4G
  serum anti-dsDNA levels: Greatly reduced
ASLN mice; flow cytometry, FIG. 5A
  CD4+ T cells (CD4+CD44hiCD62Llo T memory cells) in splenocytes: inhibited
ASLN mice; flow cytometry, FIG. 5B
  CD8+ T cells (CD8+CD44hiCD62Llo-hi T memory cells) in splenocytes: inhibited
ASLN mice; flow cytometry, FIG. 5C
  Treg cell differentiation (CD4+CD25+Foxp3+) in splenocytes: enhanced
ASLN mice; lucigenin-enhanced chemiluminescence, vs ASLN+Vehicle, FIG. 6
  renal levels of ROS: significantly reduced
ASLN mice; vs ASLN+Vehicle, FIG. 4C
  albuminuria (urine albumin/urine Cr): greatly reduced
ASLN mice; vs ASLN+Vehicle, FIG. 4D-4F
  pathological changes including intrinsic cell proliferation and crescent formation, H&E scoring: significantly inhibited
UUO mice; 10 mg/kg IP, vs Vehicle+UUO, FIG. 7A-7D
  renal fibrotic changes (H&E TILs score, Masson's trichrome fibrotic area): greatly improved
UUO mice; vs UUO+Vehicle, FIG. 8
  increased renal expression of Col-III, IHC: inhibited
  increased renal expression of p-Smad2/3, IHC: inhibited
CKDs' subject; CKDs' subject
  downregulation of serum levels of IgG anti-dsDNA: 60˜70%
  downregulation of serum levels of blood urea nitrogen (BUN): 50˜60%
  downregulation of serum levels of creatinine (Cr): 30˜40%
CKDs' subject; [4]
  attenuation of crescent formation: 40˜90%
  attenuation of fibrinoid necrosis: 40˜90%
  attenuation of glomerular cell proliferation: 15˜35%
  sclerosis and fibrosis: attenuates
